This is an account of results in patent US11505548B2, “Heterocyclic compounds and their use for treatment of helminthic infections and diseases” (Celgene Corporation, priority 2019, dated 2022).

pIC50: −log10 of the molar value.

The subject of this experiment is Onchocerca gutturosa Adult Male Worms. Nature of the experiment: Onchocerciasis in vitro screening model, worm motility score. Type of experiment: cell-based. Conditions: Onchocerca gutturosa; Table 1 O. gutturosa; levels A/B/C; motility or MTT readout not specified; read-out: O. gutturosa activity level (IC50 or MED).
What is called pIC50 is the negative decadic logarithm of the IC50, by convention in mol/L. Regarding `Cc1cccnc1Nc1nc(-c2ccc(OC3CCN(C4CC4)CC3)cn2)ns1` [Compound 45, 3-(5-(1-cyclo-propylpiperidin-4-yloxy)pyridin-2-yl)-N-(3-methylpyridin-2-yl)-1,2,4-thiadiazol-5-amine], the pIC50 was above 6.70.
Next, `COc1ccc(-c2nsc(Nc3cc(OC4CCOCC4)ccn3)n2)nc1` [Compound 46, 3-(5-methoxy-pyridin-2-yl)-N-(4-(tetrahydro-2H-pyran-4-yloxy)pyridin-2-yl)-1,2,4-thiadiazol-5-amine]: 6.30 to 6.70; `COc1ccc(-c2noc(Nc3cc(OC4CCOCC4)ccn3)n2)nc1` [Compound 47, 3-(5-methoxy-pyridin-2-yl)-N-(4-(tetrahydro-2H-pyran-4-yloxy)pyridin-2-yl)-1,2,4-oxadiazol-5-amine]: 5.30 to 6.30.
As for `Cc1cccnc1Nc1nc(-c2ccc(C3CCN(C)CC3)cn2)ns1` [Compound 48, 3-(5-(1-methyl-piperidin-4-yl)pyridin-2-yl)-N-(3-methylpyridin-2-yl)-1,2,4-thiadiazol-5-amine], the figure is 5.30 to 6.30; as for `Cc1cccnc1-c1nsc(Nc2ccc(C3CCN(C)CC3)cn2)n1` [Compound 49, N-(5-(1-methyl-piperidin-4-yl)pyridin-2-yl)-3-(3-methylpyridin-2-yl)-1,2,4-thiadiazol-5-amine], 5.30 to 6.30.
For the compound `COc1ccc(-c2nsc(Nc3ccc(C4CCN(C)CC4)cn3)n2)nc1` [Compound 50, 3-(5-methoxy-pyridin-2-yl)-N-(5-(1-methyl-piperidin-4-yl)pyridin-2-yl)-1,2,4-thiadiazol-5-amine], the pIC50 is 5.30 to 6.30.
As for `Cc1cccnc1-c1nsc(Nc2ccc(N3CCCC3)cn2)n1` [Compound 51, 3-(3-methyl-pyridin-2-yl)-N-(5-(pyrrolidin-1-yl)pyridin-2-yl)-1,2,4-thiadiazol-5-amine], the figure is above 6.70.
In the case of `Cc1cccnc1Nc1nc(-c2ccc(OC(F)(F)F)cn2)ns1` [Compound 52, N-(3-methyl-pyridin-2-yl)-3-(5-(trifluoro-methoxy)pyridin-2-yl)-1,2,4-thiadiazol-5-amine], the pIC50 was above 6.70.
On to `CNc1cccnc1Nc1nc(-c2ccc(OC3CCN(C)CC3)cn2)ns1` [Compound 53, N3-methyl-N2-(3-(5-(1-methyl-piperidin-4-yloxy)pyridin-2-yl)-1,2,4-thiadiazol-5-yl) pyridine-2,3-diamine], for which the pIC50 is 6.30 to 6.70.
Next, `CC(C)Oc1ccc(-c2nsc(Nc3ncccc3C(F)(F)F)n2)nc1` [Compound 54, 3-(5-isopropoxy-pyridin-2-yl)-N-(3-(trifluoromethyl)pyridin-2-yl)-1,2,4-thiadiazol-5-amine]: above 6.70; `CN1CCC(Oc2ccc(-c3nsc(Nc4ncccc4C(F)(F)F)n3)nc2)CC1` [Compound 55, 3-(5-(1-methyl-piperidin-4-yloxy)pyridin-2-yl)-N-(3-(trifluoromethyl)pyridin-2-yl)-1,2,4-thiadiazol-5-amine]: above 6.70; `CC(C)Oc1ccc(-c2nsc(Nc3ncccc3N(C)C)n2)nc1` [Compound 56, N2-(3-(5-isoprop-oxypyridin-2-yl)-1,2,4-thiadiazol-5-yl)-N3,N3 - dimethyl-pyridine-2,3-diamine]: 5.30 to 6.30.
As for `Cc1cccnc1Nc1nc(-c2ccc(C(=O)N3CCN(C)CC3)cn2)ns1` [Compound 57, (4-methyl-piperazin-1-yl)(6-(5-(3-methyl-pyridin-2-ylamino)-1,2,4-thiadiazol-3-yl)pyridin-3-yl) methanone], the figure is 5.30 to 6.30.
Next, `Cc1cccnc1Nc1nc(-c2ccc(C(=O)N3CCOCC3)cn2)ns1` [Compound 58, (6-(5-(3-methyl-pyridin-2-ylamino)-1,2,4-thiadiazol-3-yl)pyridin-3-yl)(morpholino) methanone]: 6.30 to 6.70; `CN1CCC(Oc2ccc(-c3nsc(Nc4ncccc4N(C)C)n3)nc2)CC1` [Compound 59, N3,N3-dimethyl-N2-(3-(5-(1-methylpiperidin-4-yloxy)pyridin-2-yl)-1,2,4-thiadiazol-5-yl)pyridine-2,3-diamine]: 5.30 to 6.30.
`Cc1cccnc1Nc1nc(-c2ccc(C(=O)NCC(F)(F)F)cn2)ns1` [Compound 60, 6-(5-(3-methyl-pyridin-2-ylamino)-1,2,4-thiadiazol-3-yl)-N-(2,2,2-trifluoroethyl) nicotinamide]: the pIC50 is 5.30 to 6.30.
As for `Cc1cccnc1Nc1nc(-c2ccc(C(=O)N3CCCC3)cn2)ns1` [Compound 61, (6-(5-(3-methyl-pyridin-2-ylamino)-1,2,4-thiadiazol-3-yl)pyridin-3-yl) (pyrrolidin-1-yl)methanone], the figure is 6.30 to 6.70; as for `CN1CCC(Oc2ccnc(-c3nsc(Nc4ncccc4C(F)(F)F)n3)c2)CC1` [Compound 62, 3-(4-(1-methyl-piperidin-4-yloxy)pyridin-2-yl)-N-(3-(trifluoromethyl)pyridin-2-yl)-1,2,4-thiadiazol-5-amine], above 6.70; as for `Cc1cccnc1Nc1nnc(-c2ccc(OC3CCN(C)CC3)cn2)s1` [Compound 63, 5-(5-(1-methyl-piperidin-4-yloxy)pyridin-2-yl)-N-(3-methylpyridin-2-yl)-1,3,4-thiadiazol-2-amine], 5.30 to 6.30.
For `Cc1cccnc1Nc1nnc(-c2ccc(OC(C)C)cn2)s1` [Compound 64, 5-(5-isopropoxy-pyridin-2-yl)-N-(3-methyl-pyridin-2-yl)-1,3,4-thiadiazol-2-amine], the pIC50 is 5.30 to 6.30.
In the case of `Cc1cccnc1Nc1nc(-c2cc(OC3CC3)ccn2)ns1` [Compound 65, 3-(4-cycloprop-oxypyridin-2-yl)-N-(3-methyl-pyridin-2-yl)-1,2,4-thiadiazol-5-amine], the pIC50 was 5.30 to 6.30.
In the case of `COc1ccc(-c2nsc(Nc3cc(C(F)(F)F)c(C(C)C)cn3)n2)nc1` [Compound 66, N-(5-isopropyl-4-(trifluoromethyl)pyridin-2-yl)-3-(5-methoxy-pyridin-2-yl)-1,2,4-thiadiazol-5-amine], the pIC50 is 6.30 to 6.70.
Next, `CC(C)c1ccnc(-c2nsc(Nc3ncccc3C(F)(F)F)n2)c1` [Compound 67, 3-(4-isopropyl-pyridin-2-yl)-N-(3-(trifluoromethyl)pyridin-2-yl)-1,2,4-thiadiazol-5-amine]: above 6.70; `COc1ccc(-c2nsc(Nc3ccc(C4CCCC4)cn3)n2)nc1` [Compound 68, N-(5-cyclopentyl-pyridin-2-yl)-3-(5-methoxypyridin-2-yl)-1,2,4-thiadiazol-5-amine]: 6.30 to 6.70; `Cc1cccnc1Nc1nc(-c2ccc(OC(C)C)cn2)n[nH]1` [Compound 69, N-(3-(5-isopropoxy-pyridin-2-yl)-1H-1,2,4-triazol-5-yl)-3-methylpyridin-2-amine]: 6.30 to 6.70.
Take `CC(C)Oc1ccc(-c2n[nH]c(Nc3ncccc3C(F)(F)F)n2)nc1` [Compound 70, N-(3-(5-isopropoxy-pyridin-2-yl)-1H-1,2,4-triazol-5-yl)-3-(trifluoromethyl) pyridin-2-amine]: the pIC50 is 5.30 to 6.30.
Next, `Cc1cccnc1Nc1nc(-c2ccc(OC3CCN(C)CC3)cn2)n[nH]1` [Compound 71, 3-methyl-N-(3-(5-(1-methyl-piperidin-4-yloxy)pyridin-2-yl)-1H-1,2,4-triazol-5-yl) pyridin-2-amine]: 5.30 to 6.30.
Next, `Cc1cccnc1Nc1nc(-c2ccc(OC3CCN(C4CCCC4)CC3)cn2)ns1` [Compound 72, 3-(5-(1-cyclo-pentylpiperidin-4-yloxy)pyridin-2-yl)-N-(3-methylpyridin-2-yl)-1,2,4-thiadiazol-5-amine]: 6.30 to 6.70.
Take `Cc1cccnc1Nc1nc(-c2ccc(OCC3CC3)cn2)ns1` [Compound 73, 3-(5-(cyclopropyl-methoxy)pyridin-2-yl)-N-(3-methylpyridin-2-yl)-1,2,4-thiadiazol-5-amine]: the pIC50 is above 6.70.
Turning to `CC(C)c1cccnc1Nc1nc(-c2ccc(OC3CC3)cn2)ns1` [Compound 74, 3-(5-cyclopropoxy-pyridin-2-yl)-N-(3-isopropylpyridin-2-yl)-1,2,4-thiadiazol-5-amine], the pIC50 was above 6.70.
As for `Cc1cccnc1Nc1nc(-c2ccc(OC3CCN(CC4CC4)CC3)cn2)ns1` [Compound 75, 3-(5-(1-(cyclopropyl-methyl)piperidin-4-yloxy)pyridin-2-yl)-N-(3-methylpyridin-2-yl)-1,2,4-thiadiazol-5-amine], the figure is 6.30 to 6.70; as for `CC(C)Oc1ccc(-c2nsc(Nc3ncccc3C3CC3)n2)nc1` [Compound 76, N-(3-cyclopropyl-pyridin-2-yl)-3-(5-isopropoxy-pyridin-2-yl)-1,2,4-thiadiazol-5-amine], above 6.70; as for `Cc1cccnc1Nc1nc(-c2ccc(OC3CC4(CCN(C)C4)C3)cn2)ns1` (centres unmarked) [Compound 77, 3-(5-(6-methyl-6-azaspiro [3.4]octan-2-yloxy)pyridin-2-yl)-N-(3-methylpyridin-2-yl)-1,2,4-thiadiazol-5-amine], 5.30 to 6.30.
Regarding `CN(C)c1cccnc1Nc1nc(-c2ccc(OC3CC3)cn2)ns1` [Compound 78, N2-(3-(5-cyclopropoxy-pyridin-2-yl)-1,2,4-thiadiazol-5-yl)-N3,N3-dimethyl-pyridine-2,3-diamine], the pIC50 was 5.30 to 6.30.
As for `Cc1cccnc1Nc1nc(-c2ccc(S(C)(=O)=O)cn2)ns1` [Compound 79, N-(3-methyl-pyridin-2-yl)-3-(5-(methyl-sulfonyl)pyridin-2-yl)-1,2,4-thiadiazol-5-amine], the figure is 5.30 to 6.30; as for `COc1cccnc1Nc1nc(-c2ccc(OC3CC3)cn2)ns1` [Compound 80, 3-(5-cycloprop-oxypyridin-2-yl)-N-(3-methoxypyridin-2-yl)-1,2,4-thiadiazol-5-amine], 6.30 to 6.70; as for `COc1cccnc1Nc1nc(-c2ccc(OC(C)C)cn2)ns1` [Compound 81, 3-(5-isopropoxy-pyridin-2-yl)-N-(3-methoxy-pyridin-2-yl)-1,2,4-thiadiazol-5-amine], above 6.70.
As for `Cc1cccnc1Nc1nc(-c2ccc(OC3CC4(C3)CN(C3CC3)C4)cn2)ns1` [Compound 82, 3-(5-(2-cyclo-propyl-2-azaspiro[3.3]heptan-6-yloxy)pyridin-2-yl)-N-(3-methylpyridin-2-yl)-1,2,4-thiadiazol-5-amine], the figure is 6.30 to 6.70.
